Assay results: ChEMBL document CHEMBL1136870, “Synthesis of aristolactam analogues and evaluation of their antitumor activity” (2009)

Assays:
Assay type in all cases: functional
[1] = Antiproliferative activity against human MESSA cells by SRB assay; details: MES-SA
HCT-15 = assay: Antiproliferative activity against human HCT15 cells by SRB assay
[2] = Antiproliferative activity against multidrug resistant human HCT15/CLO2 cells by SRB assay; details: HCT-15
[3] = Antiproliferative activity against multidrug resistant human MES-SA/Dx5 cells by SRB assay
A-431 = assay: Antiproliferative activity against human A431 cells by SRB assay
MDA-MB-231 = assay: Antiproliferative activity against human MDA-MB-231 cells by SRB assay
BT-474 = assay: Antiproliferative activity against human BT474 cells by SRB assay
SK-OV-3 = assay: Antiproliferative activity against human SKOV3 cells by SRB assay
A549 = assay: Antiproliferative activity against human A549 cells by SRB assay

Row | GI50 (HCT-15) | GI50 (A-431) | GI50 (MDA-MB-231) | GI50 (BT-474) | GI50 (SK-OV-3) | GI50 (A549) | SMILES | GI50 [1] | GI50 [2] | GI50 [3]
1 | 0.3 µM | – | – | – | – | – | COc1ccc2c(c1)cc1c3c(cc(OC)c(OC)c32)C(=O)N1C | 1.22 µM | 0.16 µM | 0.76 µM
2 | – | 10.9 µM | 9.37 µM | 4.16 µM | 5.45 µM | – | CCN1C(=O)c2cc(OC)c(OC)c3c2c1cc1ccccc13 | – | – | –
3 | 3.79 µM | 2.83 µM | – | – | 13.1 µM | 1.62 µM | Cc1c2c3c(cccc3c3ccccc13)C(=O)N2C | – | – | –
4 | 0.72 µM | 0.15 µM | – | – | 0.33 µM | 0.19 µM | COc1cc2cc3c4c(cc(OC)c(OC)c4c2cc1OC)C(=O)N3CCN(C)C | 0.39 µM | 0.57 µM | 0.51 µM
5 | 1.53 µM | – | – | – | – | – | COc1cc2c3c(cc4ccc(C)cc4c3c1OC)N(C)C2=O | > 30 µM | 1.46 µM | > 30 µM
6 | 0.27 µM | 0.18 µM | – | – | 0.33 µM | 0.18 µM | COc1cc2c3c(c(C)c4ccccc4c3c1OC)N(CCN1CCCCC1)C2=O | – | – | –
7 | – | > 30 µM | > 30 µM | > 30 µM | > 30 µM | – | C#CCN1C(=O)c2cc(OC)c(OC)c3c2c1cc1ccccc13 | – | – | –
8 | 1.25 µM | – | – | – | – | – | COc1cc([C@@H]2c3cc4c(cc3[C@@H](O[C@@H]3O[C@@H]5CO[C@@H](C)O[C@H]5[C@H](O)[C@H]3O)[C@H]3COC(=O)[C@H]23)OCO4)cc(OC)c1O [ETOPOSIDE] | 0.21 µM | 10 µM | 9.72 µM
9 | – | > 30 µM | – | – | > 30 µM | – | COc1cc2c3c(c(C)c4ccccc4c3c1OC)N(C)C2=O | – | – | –
10 | 1.73 µM | 1.29 µM | – | – | 0.95 µM | 0.95 µM | COc1cc2c3c(cc4ccccc4c3c1OC)N(CCN1CCCCC1)C2=O | 1.46 µM | 1.58 µM | 1.51 µM
11 | 5.91 µM | 2.95 µM | – | – | 6.72 µM | 4.1 µM | COc1ccc2cc3c4c(cc(OC)c(OC)c4c2c1)C(=O)N3CCN1CCCCC1 | – | – | –
12 | 2.94 µM | – | – | – | – | – | COc1cc2c3c(cc4cc(Cl)ccc4c3c1OC)N(C)C2=O | > 30 µM | 17.9 µM | > 30 µM
13 | 0.92 µM | 0.18 µM | – | – | 0.91 µM | 0.26 µM | COc1cc2c3c(cc4cc(Cl)ccc4c3c1OC)N(CCN1CCCCC1)C2=O | 0.59 µM | 0.83 µM | 0.61 µM
14 | – | > 30 µM | > 30 µM | 22.5 µM | 24.3 µM | – | COCCN1C(=O)c2cc(OC)c(OC)c3c2c1cc1ccccc13 | – | – | –
15 | – | 4.64 µM | – | – | 5.49 µM | – | COc1cc2c3c(cc4ccccc4c3c1OC)N(CCN1CCOCC1)C2=O | – | – | –
16 | 4.22 µM | 1.19 µM | – | – | 1.71 µM | 1.54 µM | COc1cc2cc3c4c(cc(OC)c(OC)c4c2cc1OC)C(=O)N3CCN1CCCCC1 | – | – | –
17 | – | > 30 µM | – | – | 9.94 µM | – | COc1cc2c3c(cc4ccccc4c3c1OC)N(Cc1ccncc1)C2=O | – | – | –
18 | – | > 30 µM | > 30 µM | 20.6 µM | 19.4 µM | – | COc1cc2c3c(cc4ccccc4c3c1OC)N(C(C)C)C2=O | – | – | –

Row | GI50 (HCT-15) | GI50 (A-431) | GI50 (MDA-MB-231) | GI50 (BT-474) | GI50 (SK-OV-3) | GI50 (A549) | SMILES | GI50 [1] | GI50 [2] | GI50 [3]
19 | 5.93 µM | – | – | – | – | – | COc1cc2c3c(cc4cc5c(cc4c3c1OC)OCO5)N(C)C2=O | 27.1 µM | 1.64 µM | 18.9 µM
20 | 0.19 µM | 0.0012 µM | – | – | 0.021 µM | 0.003 µM | COc1cccc2c1C(=O)c1c(O)c3c(c(O)c1C2=O)C[C@@](O)(C(=O)CO)C[C@@H]3O[C@H]1C[C@H](N)[C@H](O)[C@H](C)O1 [DOXORUBICIN] | 0.0051 µM | 7.92 µM | 0.93 µM
21 | 0.011 µM | < 1e-05 µM | – | – | – | – | CC(=O)O[C@H]1C(=O)[C@@]2(C)[C@H]([C@H](OC(=O)c3ccccc3)[C@]3(O)C[C@H](OC(=O)[C@H](O)[C@@H](NC(=O)c4ccccc4)c4ccccc4)C(C)=C1C3(C)C)[C@]1(OC(C)=O)CO[C@@H]1C[C@@H]2O [PACLITAXEL] | < 1e-05 µM | 0.83 µM | 0.16 µM
22 | 4.21 µM | 8.02 µM | – | – | 4.26 µM | 1.54 µM | CN1C(=O)c2cccc3c2c1cc1ccccc13 | 1.81 µM | 5.72 µM | 3.56 µM
23 | – | 3.51 µM | 18.2 µM | 11.1 µM | 6.04 µM | – | COc1cc2c3c(cc4ccccc4c3c1OC)N(c1ccc(C(C)(C)C)cc1)C2=O | – | – | –
24 | – | 27.1 µM | > 30 µM | 23 µM | 24.2 µM | – | COc1cc2c3c(cc4ccccc4c3c1OC)N(CC1CC1)C2=O | – | – | –
25 | 0.06 µM | – | – | – | – | – | COc1cc2cc3c4c(cc(OC)c(OC)c4c2cc1OC)C(=O)N3C | 1.05 µM | 0.07 µM | 1.01 µM
26 | 12.8 µM | – | – | – | – | – | COc1cc2c3c(cc4ccccc4c3c1O)N(C)C2=O [N-METHYL PIPEROLACTAM A] | 14.5 µM | 10.8 µM | 14.5 µM
27 | > 30 µM | – | – | – | – | – | COc1cc2c3c(cc4ccccc4c3c1OC)NC2=O [CEPHARANONE B] | > 30 µM | > 30 µM | > 30 µM
28 | 4.1 µM | – | – | – | – | – | COc1c(O)cc2c3c(cc4ccccc4c13)N(C)C2=O [SAURISTOLACTAM] | 23.8 µM | 4.38 µM | 23.1 µM
29 | 0.1 µM | < 0.1 µM | – | – | < 0.1 µM | < 0.1 µM | COc1cc2c3c(cc4c5c(ccc4c3c1OC)OCO5)N(CCN1CCCCC1)C2=O | < 0.1 µM | 0.14 µM | < 0.1 µM
30 | – | 23.7 µM | > 30 µM | 12.8 µM | 13.4 µM | – | COc1cc2c3c(cc4ccccc4c3c1OC)N(CCc1ccccc1)C2=O | – | – | –
31 | < 0.0001 µM | < 0.0001 µM | – | – | < 0.1 µM | < 0.1 µM | COc1cc2c3c(cc4c5c(ccc4c3c1OC)OCO5)N(CCN(C)C)C2=O | < 0.0001 µM | 0.0095 µM | < 0.0001 µM
32 | 8.47 µM | 5.75 µM | – | – | 3.42 µM | – | COc1cc2c3c(cc4ccccc4c3c1OC)N(C)C2=O | 3.84 µM | 8.61 µM | 9.52 µM
33 | – | > 30 µM | > 30 µM | > 30 µM | 23.8 µM | – | COc1cc2c3c(cc4ccccc4c3c1OC)N(Cc1cccs1)C2=O | – | – | –
34 | – | 32.5 µM | > 30 µM | 23.7 µM | 16.2 µM | – | COc1ccc(N2C(=O)c3cc(OC)c(OC)c4c3c2cc2ccccc24)cc1 | – | – | –
35 | > 30 µM | – | – | – | – | – | COc1cc2c3c(cc4ccccc4c3c1O)NC2=O [PIPEROLACTAM A] | > 30 µM | > 30 µM | 27 µM

Row | SMILES | GI50 (HCT-15) | GI50 (A-431) | GI50 (MDA-MB-231) | GI50 (BT-474) | GI50 (SK-OV-3) | GI50 (A549) | GI50 [1] | GI50 [2] | GI50 [3]
36 | COc1ccc2cc3c4c(cc(OC)c(OC)c4c2c1)C(=O)N3 [ARISTOLACTAM BIII] | 3.74 µM | – | – | – | – | – | 2.7 µM | 3.35 µM | 2.82 µM
